Read-outs that look alike come from different tables or passages of the source.
Columns and labels:
[1] = biological target: T1, human glycine transporter 1b cDNA (GlyT1) (Homo sapiens, UniProt P48067); test: Inhibition of glycine transporter 1 in a cellular assay ([3H] glycine uptake into CHO cells); format: cell-based
T1 construct: expressed in transfected cells
T1 sequence (P48067 1-652 isoform P48067-3): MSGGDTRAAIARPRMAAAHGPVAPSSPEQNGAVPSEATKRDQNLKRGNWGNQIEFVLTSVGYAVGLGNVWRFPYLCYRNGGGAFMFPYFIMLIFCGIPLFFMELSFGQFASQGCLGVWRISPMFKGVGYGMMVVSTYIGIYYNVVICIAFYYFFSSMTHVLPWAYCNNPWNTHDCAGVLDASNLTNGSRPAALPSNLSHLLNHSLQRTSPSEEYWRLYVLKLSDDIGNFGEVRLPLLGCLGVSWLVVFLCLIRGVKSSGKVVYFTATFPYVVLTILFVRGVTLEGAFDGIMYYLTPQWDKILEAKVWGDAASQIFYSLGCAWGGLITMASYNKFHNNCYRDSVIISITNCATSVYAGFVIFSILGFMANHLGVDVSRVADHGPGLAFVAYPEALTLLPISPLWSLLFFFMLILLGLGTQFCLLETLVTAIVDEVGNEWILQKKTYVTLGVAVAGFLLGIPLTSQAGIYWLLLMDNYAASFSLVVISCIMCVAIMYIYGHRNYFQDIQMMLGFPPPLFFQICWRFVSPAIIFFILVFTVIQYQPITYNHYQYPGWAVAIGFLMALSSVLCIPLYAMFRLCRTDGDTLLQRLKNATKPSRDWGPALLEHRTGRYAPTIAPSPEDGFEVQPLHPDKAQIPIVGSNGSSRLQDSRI
Procedure: Cells were harvested by trypsinisation one day prior to the assay and were seeded in the above mentioned medium. Immediately prior to the assay, the medium was replaced by uptake buffer containing 150 mM NaCl, 1 mM CaCl2, 2.5 mM KCl, 2.5 mM MgCl2, 10 mM Glucose and 10 mM N-2-hydroxyethylpiperazine-N'-2-ethanesulfonic acid ("Hepes" buffer). […] Louis, USA) were used as known inhibitors of GlyT1. […] Data is shown as mean ± s.e.m., where the IC50 is stated as µM for pure compounds and as µg/mLfor extracts.

[2] = test system: pCREB; test: Hippocampal slice cultures, immunohistochemistry of synaptic marker pCREB; format: cell-based, Wistar rats; conditions: relative activation vs sister cultures treated with buffer; 15 min treatment after 48 h in culture; note: key: ++++ shows a qualitative maximal activation; -- shows a reduced activation; ++ signifies a half-maximum activation; ± demonstrated no change in immunoreactivity
Procedure: (§1) Seven-day-old Wistar rats were decapitated using a guillotine. […] Transversal hippocampal slices (400 µm) were prepared using a vibrating blade microtome (VT1200S; Leica Microsystems (Schweiz) AG, Heerbrugg, Switzerland) in the same buffer. Hippocampal slices were individually placed on a membrane insert (Millicell Culture Plate Inserts, 0.4 µm) and cultivated at 35 °C, 5% CO2, 95% humidity in a medium containing a 1:1 mixture of BME and MEM (both from Invitrogen) containing 25% heat-inactivated horse serum, 1x GlutaMAX, 1x Penicillin/Streptomycin, 0.6% glucose and 1mM Kynurenic acid (Stoppini, Buchs and Muller (1991), J. Neurosci. Methods, 37(2), 173-82). After 48 h in culture, synaptic NMDA receptors were activated by addition of black pepper extract or its constituents for 15 min in 140 mM NaCl, 5 mM KCl, 1.3 mM CaCl2, 25 mM HEPES (pH 7.3), 33 mM D-glucose and 0.02 mM bicuculline methiodide. […] After the treatments, sections were washed and fixed for immunohistochemistry. Markers of enhanced synaptic activity, normally associated with long-term potentiation, representing an ex vivo model of learning and memory were quantitated (see Table 2, below). Table 2. […] The activation of any of these markers (or a combination thereof) is observed in classical LTP experiments. TABLE 2 […]

[3] = test system: pMAPK; test: Hippocampal slice cultures, immunohistochemistry of synaptic marker pMAPK; format: cell-based, Wistar rats; conditions: relative activation vs sister cultures treated with buffer; 15 min treatment after 48 h in culture; note: key: ++++ shows a qualitative maximal activation; -- shows a reduced activation; ++ signifies a half-maximum activation; ± demonstrated no change in immunoreactivity
Procedure: as §1

[4] = test system: GluR1; test: Hippocampal slice cultures, immunohistochemistry of synaptic marker GluR1; format: cell-based, Wistar rats; conditions: relative activation vs sister cultures treated with buffer; 15 min treatment after 48 h in culture
Procedure: Seven-day-old Wistar rats were decapitated using a guillotine. […] Transversal hippocampal slices (400 µm) were prepared using a vibrating blade microtome (VT1200S; Leica Microsystems (Schweiz) AG, Heerbrugg, Switzerland) in the same buffer. Hippocampal slices were individually placed on a membrane insert (Millicell Culture Plate Inserts, 0.4 µm) and cultivated at 35 °C, 5% CO2, 95% humidity in a medium containing a 1:1 mixture of BME and MEM (both from Invitrogen) containing 25% heat-inactivated horse serum, 1x GlutaMAX, 1x Penicillin/Streptomycin, 0.6% glucose and 1mM Kynurenic acid (Stoppini, Buchs and Muller (1991), J. Neurosci. Methods, 37(2), 173-82). After 48 h in culture, synaptic NMDA receptors were activated by addition of black pepper extract or its constituents for 15 min in 140 mM NaCl, 5 mM KCl, 1.3 mM CaCl2, 25 mM HEPES (pH 7.3), 33 mM D-glucose and 0.02 mM bicuculline methiodide. […] After the treatments, sections were washed and fixed for immunohistochemistry. Markers of enhanced synaptic activity, normally associated with long-term potentiation, representing an ex vivo model of learning and memory were quantitated (see Table 2, below). Table 2. […] The activation of any of these markers (or a combination thereof) is observed in classical LTP experiments.

[5] = pure compounds, CHO cells expressing GlyT1, 60 nM [3H] glycine, 30 minutes at room temperature

## O=C(/C=C/C=C/c1ccc2c(c1)OCO2)N1CCCCC1 [Piperine]
[1]
  IC50: 48.7 µM
[2]
  pCREB: ±
[3]
  pMAPK: ±
[4]
  GluR1: 119-1742%

## CNCC(=O)O [Sarcosine, reference compound]
[2]
  pCREB: ±
[3]
  pMAPK: ±

## NCC(=O)O [Glycine, reference compound]
[2]
  pCREB: ++
[3]
  pMAPK: ++

## COc1cc(/C=C/C(=O)N2CCC=CC2=O)cc(OC)c1OC [Piperlongumine]
[1]; [5]
  IC50 for tritiated glycine uptake: inactive
[2]
  pCREB: ±
[3]
  pMAPK: ±
[4]
  GluR1: 412-931%

## CN(CC[C@@H](Oc1ccc(C(F)(F)F)cc1)c1ccccc1)CC(=O)O [ORG24598, reference compound]
[1]; read-out: IC50 for tritiated glycine uptake, pure compounds, CHO cells expressing GlyT1, 60 nM [3H] glycine, 30 minutes at room temperature
  IC50: 0.02 µM

## CC(C)CNC(=O)/C=C/C=C/c1ccc2c(c1)OCO2 [Piperlonguminine]
[1]; [5]
  IC50 for tritiated glycine uptake: inactive

Reference: patent EP2289528A1, “Novel nutraceutical compositions containing black pepper or its constituents improving mental performance” (DSM IP Assets B.V., priority 2009, dated 2011)
